Source: patent US10058533B2, “Pharmaceutical composition containing Ginkgolide B and Xa factor inhibitor, preparation method thereof and use thereof” (CHENGDU BAIYU PHARMACEUTICAL CO., LTD, priority 2014, dated 2018)

System: factor Xa
Test: Plasma anti-factor Xa activity, rabbit wound-limb deep venous thrombosis forming model
Type: in vivo
Conditions: plasma, 5 mg/kg i.g., 0.5 h after administration, x ± SD
Method: (§1) Eight were taken as control group and the rest were treated by a striking device. Striking area was a round surface with the diameter of 1.5 cm, the wounding energy was calculated according to Ep=mgh, and the energy of each striking of the iron rod is 7.5 J.
(§2) Specifically: the rabbit was anesthetized by intravenous injection of 3% pentobarbital sodium at ear edge with the dose of 1 ml/kg. The rabbit was kept laying down at right side prostrate position and the left thigh was set on the striking platform. Found the trochanter of the left femur and set the striking head attached to area from the trochanter to the 1.5 cm below. The self-made striking device was used for striking the outer side of the thigh near-end, and the plaster was used for fixing the left limb on the hip/knee-bending area. When the plaster bandage was applied and the right hip was examined to move freely, the rabbit was kept to lay down until solidification. After the model establishment, the animal was allowed to drink water normally and was fed with granular food. No anticoagulant or antibiotic was used.
(§3) Animals were grouped after modeling. The drug was fed according to table 4 via oral gavage, once a day for 7 days continuously.
(§4) At 0.5, 1.0, 2.0, 3.0 and 4.0 h after the first administration, blood was taken from ear central artery. Plasma was separated and aPPT, PT and the anti-factor Xa activity were determined on an automatic coagulation detector.

| Molecule | anti-factor Xa activity |
| --- | --- |
| CN(C)Cc1nccn1-c1ccc(NC(=O)c2cc(C(F)(F)F)nn2-c2ccc3onc(N)c3c2)c(F)c1 [Razaxaban] | 0.20 ± 0.14 IU/ml |
| Otamixaban | 0.19 ± 0.04 IU/ml |

Same assay, conditions: plasma, 5 mg/kg i.g., 1 h after administration, x ± SD

| Molecule | anti-factor Xa activity |
| --- | --- |
| CN(C)Cc1nccn1-c1ccc(NC(=O)c2cc(C(F)(F)F)nn2-c2ccc3onc(N)c3c2)c(F)c1 [Razaxaban] | 0.18 ± 0.05 IU/ml |
| Otamixaban | 0.25 ± 0.10 IU/ml |

Same assay, conditions: plasma, 5 mg/kg i.g., 2 h after administration, x ± SD

| Molecule | anti-factor Xa activity |
| --- | --- |
| CN(C)Cc1nccn1-c1ccc(NC(=O)c2cc(C(F)(F)F)nn2-c2ccc3onc(N)c3c2)c(F)c1 [Razaxaban] | 0.23 ± 0.08 IU/ml |
| Otamixaban | 0.26 ± 0.14 IU/ml |

Same assay, conditions: plasma, 5 mg/kg i.g., 3 h after administration, x ± SD

| Molecule | anti-factor Xa activity |
| --- | --- |
| CN(C)Cc1nccn1-c1ccc(NC(=O)c2cc(C(F)(F)F)nn2-c2ccc3onc(N)c3c2)c(F)c1 [Razaxaban] | 1.31 ± 0.30 IU/ml |
| Otamixaban | 1.25 ± 0.12 IU/ml |

Same assay, conditions: plasma, 5 mg/kg i.g., 4 h after administration, x ± SD

| Molecule | anti-factor Xa activity |
| --- | --- |
| CN(C)Cc1nccn1-c1ccc(NC(=O)c2cc(C(F)(F)F)nn2-c2ccc3onc(N)c3c2)c(F)c1 [Razaxaban] | 1.32 ± 0.09 IU/ml |
| Otamixaban | 1.24 ± 0.06 IU/ml |

System: factor Xa
Test: Anti-coagulation factor Xa activity in vitro (chromogenic substrate assay)
Type: biochemical, rabbit
Conditions: not given
Method: A chromogenic substrate assay was adopted, and plasma anti-Xa activity was determined on a microplate reader according to a kit specification and reference documents.

| Molecule | anti-factor Xa activity |
| --- | --- |
| CN(C)Cc1nccn1-c1ccc(NC(=O)c2cc(C(F)(F)F)nn2-c2ccc3onc(N)c3c2)c(F)c1 [Razaxaban] | 0.86 IU/ml |
| Otamixaban | 1.03 IU/ml |

System: venous thromboembolism (VTE)
Test: not given
Conditions: patients taking Razaxaban 25 mg, total knee replacement; cited from earlier work

| Molecule | VTE occurrence rate compared with enoxaparin |
| --- | --- |
| CN(C)Cc1nccn1-c1ccc(NC(=O)c2cc(C(F)(F)F)nn2-c2ccc3onc(N)c3c2)c(F)c1 [Razaxaban] | significantly lower |

Same assay, conditions: patients taking Razaxaban 25 mg; cited from earlier work

| Molecule | occurrence rate of large bleeding compared with enoxaparin |
| --- | --- |
| CN(C)Cc1nccn1-c1ccc(NC(=O)c2cc(C(F)(F)F)nn2-c2ccc3onc(N)c3c2)c(F)c1 [Razaxaban] | similar |

Same assay, conditions: patients taking Razaxaban 50-100 mg; cited from earlier work

| Molecule | large bleeding compared with Enoxaparin |
| --- | --- |
| CN(C)Cc1nccn1-c1ccc(NC(=O)c2cc(C(F)(F)F)nn2-c2ccc3onc(N)c3c2)c(F)c1 [Razaxaban] | more likely to have large bleeding |

System: PAF (Platelet activating factor)
Test: Plasma PAF content by ELISA, rabbit wound-limb deep venous thrombosis forming model
Type: in vivo
Conditions: 0.5 h after administration; rabbit wound-limb deep venous thrombosis model; *p<0.05, **p<0.01, ***p<0.001 vs model group
Method: as §2, with “Eight were taken as control group and the rest were treated by a striking device. […] Specifically:” for “Specifically:”, “Found the trochanter of the left femur and set the striking head attached to area from the trochanter to the 1.5 cm below.” left out, “used. Animals were grouped after modeling. The drug was fed according to table 4 via oral gavage, once a day for 7 days continuously. At 0.5, 1.0, 2.0, 3.0 and 4.0 h after the first administration, blood was taken from ear central artery. Plasma was separated and the content of PAF was determined by ELISA.” for “used.”

| Molecule | PAF content (x ± SD) |
| --- | --- |
| CN(C)Cc1nccn1-c1ccc(NC(=O)c2cc(C(F)(F)F)nn2-c2ccc3onc(N)c3c2)c(F)c1 [Razaxaban] | 889.42 ± 326.32 ng/L |

Same assay, conditions: 1 h after administration; rabbit wound-limb deep venous thrombosis model; *p<0.05, **p<0.01, ***p<0.001 vs model group

| Molecule | PAF content (x ± SD) |
| --- | --- |
| CN1CCc2nc(C(=O)N[C@@H]3C[C@@H](C(=O)N(C)C)CC[C@@H]3NC(=O)C(=O)Nc3ccc(Cl)cn3)sc2C1 [Edoxaban] | 1236.72 ± 301.62 ng/L |
| CN(C)Cc1nccn1-c1ccc(NC(=O)c2cc(C(F)(F)F)nn2-c2ccc3onc(N)c3c2)c(F)c1 [Razaxaban] | 1501.29 ± 131.10 ng/L |
| Otamixaban | 1526.56 ± 212.31 ng/L |

Same assay, conditions: 2 h after administration; rabbit wound-limb deep venous thrombosis model; *p<0.05, **p<0.01, ***p<0.001 vs model group

| Molecule | PAF content (x ± SD) |
| --- | --- |
| Otamixaban | 1123.45 ± 224.51 ng/L |

Same assay, conditions: 3 h after administration; rabbit wound-limb deep venous thrombosis model; *p<0.05, **p<0.01, ***p<0.001 vs model group

| Molecule | PAF content (x ± SD) |
| --- | --- |
| CN1CCc2nc(C(=O)N[C@@H]3C[C@@H](C(=O)N(C)C)CC[C@@H]3NC(=O)C(=O)Nc3ccc(Cl)cn3)sc2C1 [Edoxaban] | 1623.43 ± 256.35 ng/L |
| CN(C)Cc1nccn1-c1ccc(NC(=O)c2cc(C(F)(F)F)nn2-c2ccc3onc(N)c3c2)c(F)c1 [Razaxaban] | 1641.26 ± 242.32 ng/L |
| Otamixaban | 1745.52 ± 356.26 ng/L |

Same assay, conditions: 4 h after administration

| Molecule | PAF content compared to model group |
| --- | --- |
| CN(C)Cc1nccn1-c1ccc(NC(=O)c2cc(C(F)(F)F)nn2-c2ccc3onc(N)c3c2)c(F)c1 [Razaxaban] | decreased significantly |
| Otamixaban | decreased significantly |

System: not given
Test: not given
Conditions: in vivo; cited from earlier work

| Molecule | excretion through kidney |
| --- | --- |
| Otamixaban | less than 25% |

System: coagulation function (aPTT)
Test: aPTT of coagulation function, rabbit wound-limb deep venous thrombosis forming model
Type: in vivo
Conditions: 5 mg/kg i.g., 0.5 h after administration, x ± SD
Method: as §1, §2, §3, §4

| Molecule | aPPT |
| --- | --- |
| CN1CCc2nc(C(=O)N[C@@H]3C[C@@H](C(=O)N(C)C)CC[C@@H]3NC(=O)C(=O)Nc3ccc(Cl)cn3)sc2C1 [Edoxaban] | 26.77 ± 7.65 s |
| CN(C)Cc1nccn1-c1ccc(NC(=O)c2cc(C(F)(F)F)nn2-c2ccc3onc(N)c3c2)c(F)c1 [Razaxaban] | 20.13 ± 6.74 s |
| Otamixaban | 21.67 ± 9.42 s |

Same assay, conditions: 5 mg/kg i.g., 1 h after administration, x ± SD

| Molecule | aPPT |
| --- | --- |
| CN1CCc2nc(C(=O)N[C@@H]3C[C@@H](C(=O)N(C)C)CC[C@@H]3NC(=O)C(=O)Nc3ccc(Cl)cn3)sc2C1 [Edoxaban] | 25.01 ± 9.52 s |
| CN(C)Cc1nccn1-c1ccc(NC(=O)c2cc(C(F)(F)F)nn2-c2ccc3onc(N)c3c2)c(F)c1 [Razaxaban] | 26.23 ± 8.43 s |
| Otamixaban | 25.71 ± 7.68 s |

Same assay, conditions: 5 mg/kg i.g., 2 h after administration, x ± SD

| Molecule | aPPT |
| --- | --- |
| CN1CCc2nc(C(=O)N[C@@H]3C[C@@H](C(=O)N(C)C)CC[C@@H]3NC(=O)C(=O)Nc3ccc(Cl)cn3)sc2C1 [Edoxaban] | 33.63 ± 5.45 s |
| CN(C)Cc1nccn1-c1ccc(NC(=O)c2cc(C(F)(F)F)nn2-c2ccc3onc(N)c3c2)c(F)c1 [Razaxaban] | 22.33 ± 4.46 s |
| Otamixaban | 25.61 ± 6.75 s |

Same assay, conditions: 5 mg/kg i.g., 3 h after administration, x ± SD

| Molecule | aPPT |
| --- | --- |
| CN1CCc2nc(C(=O)N[C@@H]3C[C@@H](C(=O)N(C)C)CC[C@@H]3NC(=O)C(=O)Nc3ccc(Cl)cn3)sc2C1 [Edoxaban] | 36.47 ± 9.12 s |
| CN(C)Cc1nccn1-c1ccc(NC(=O)c2cc(C(F)(F)F)nn2-c2ccc3onc(N)c3c2)c(F)c1 [Razaxaban] | 35.75 ± 8.68 s |
| Otamixaban | 34.62 ± 7.59 s |

Same assay, conditions: 5 mg/kg i.g., 4 h after administration, x ± SD

| Molecule | aPPT |
| --- | --- |
| CN1CCc2nc(C(=O)N[C@@H]3C[C@@H](C(=O)N(C)C)CC[C@@H]3NC(=O)C(=O)Nc3ccc(Cl)cn3)sc2C1 [Edoxaban] | 27.20 ± 6.31 s |
| CN(C)Cc1nccn1-c1ccc(NC(=O)c2cc(C(F)(F)F)nn2-c2ccc3onc(N)c3c2)c(F)c1 [Razaxaban] | 29.65 ± 9.72 s |
| Otamixaban | 30.16 ± 9.37 s |

Same assay, conditions: 1 h after administration

| Molecule | aPTT compared with model group |
| --- | --- |
| CN1CCc2nc(C(=O)N[C@@H]3C[C@@H](C(=O)N(C)C)CC[C@@H]3NC(=O)C(=O)Nc3ccc(Cl)cn3)sc2C1 [Edoxaban] | no obvious extension |
| CN(C)Cc1nccn1-c1ccc(NC(=O)c2cc(C(F)(F)F)nn2-c2ccc3onc(N)c3c2)c(F)c1 [Razaxaban] | no obvious extension |
| Otamixaban | no obvious extension |

System: coagulation function (PT)
Test: PT of coagulation function, rabbit wound-limb deep venous thrombosis forming model
Type: in vivo
Conditions: 5 mg/kg i.g., 0.5 h after administration, x ± SD
Method: as §1, §2, §3, §4

| Molecule | PT |
| --- | --- |
| CN1CCc2nc(C(=O)N[C@@H]3C[C@@H](C(=O)N(C)C)CC[C@@H]3NC(=O)C(=O)Nc3ccc(Cl)cn3)sc2C1 [Edoxaban] | 6.73 ± 0.15 s |
| CN(C)Cc1nccn1-c1ccc(NC(=O)c2cc(C(F)(F)F)nn2-c2ccc3onc(N)c3c2)c(F)c1 [Razaxaban] | 6.71 ± 0.25 s |
| Otamixaban | 6.58 ± 0.45 s |

Same assay, conditions: 5 mg/kg i.g., 1 h after administration, x ± SD

| Molecule | PT |
| --- | --- |
| CN1CCc2nc(C(=O)N[C@@H]3C[C@@H](C(=O)N(C)C)CC[C@@H]3NC(=O)C(=O)Nc3ccc(Cl)cn3)sc2C1 [Edoxaban] | 6.14 ± 0.26 s |
| CN(C)Cc1nccn1-c1ccc(NC(=O)c2cc(C(F)(F)F)nn2-c2ccc3onc(N)c3c2)c(F)c1 [Razaxaban] | 7.41 ± 0.51 s |
| Otamixaban | 6.74 ± 0.26 s |

Same assay, conditions: 5 mg/kg i.g., 2 h after administration, x ± SD

| Molecule | PT |
| --- | --- |
| CN1CCc2nc(C(=O)N[C@@H]3C[C@@H](C(=O)N(C)C)CC[C@@H]3NC(=O)C(=O)Nc3ccc(Cl)cn3)sc2C1 [Edoxaban] | 6.28 ± 0.42 s |
| CN(C)Cc1nccn1-c1ccc(NC(=O)c2cc(C(F)(F)F)nn2-c2ccc3onc(N)c3c2)c(F)c1 [Razaxaban] | 6.47 ± 0.25 s |
| Otamixaban | 6.52 ± 0.43 s |

Same assay, conditions: 5 mg/kg i.g., 3 h after administration, x ± SD

| Molecule | PT |
| --- | --- |
| CN1CCc2nc(C(=O)N[C@@H]3C[C@@H](C(=O)N(C)C)CC[C@@H]3NC(=O)C(=O)Nc3ccc(Cl)cn3)sc2C1 [Edoxaban] | 6.45 ± 0.65 s |
| CN(C)Cc1nccn1-c1ccc(NC(=O)c2cc(C(F)(F)F)nn2-c2ccc3onc(N)c3c2)c(F)c1 [Razaxaban] | 6.47 ± 0.41 s |
| Otamixaban | 6.62 ± 0.42 s |

Same assay, conditions: 5 mg/kg i.g., 4 h after administration, x ± SD

| Molecule | PT |
| --- | --- |
| CN1CCc2nc(C(=O)N[C@@H]3C[C@@H](C(=O)N(C)C)CC[C@@H]3NC(=O)C(=O)Nc3ccc(Cl)cn3)sc2C1 [Edoxaban] | 6.42 ± 0.34 s |
| CN(C)Cc1nccn1-c1ccc(NC(=O)c2cc(C(F)(F)F)nn2-c2ccc3onc(N)c3c2)c(F)c1 [Razaxaban] | 6.70 ± 0.25 s |
| Otamixaban | 7.82 ± 0.31 s |
